US20050019260A1, “Animal model for allergy” (priority 2001, published 2005)

System: sheep mammary gland
Assay: Single intramammary infusion of lipopolysaccharide, MAL cell collection
Type: in vivo

lipopolysaccharide
MAL cell influx (24 h after single intramammary infusion): predominantly neutrophils
MAL cell influx (day 5 after single intramammary infusion): macrophage infiltration
